pIC50: −log10 of the molar value. Active and inactive are the calls of the source. The rule behind the calls is not given here.
Each compound was assayed against Ubiquitin carboxyl-terminal hydrolase isozyme L1 (Homo sapiens) (UniProt P09936) (assay: biochemical concentration-response of UCH-L1 DUB inhibitors, hit verification (AID 1645867)). Conditions: recombinant UCHL1 deubiquitinase activity assay.
Ubiquitin carboxyl-terminal hydrolase isozyme L1 (Homo sapiens), sequence (P09936 whole entry, looked up): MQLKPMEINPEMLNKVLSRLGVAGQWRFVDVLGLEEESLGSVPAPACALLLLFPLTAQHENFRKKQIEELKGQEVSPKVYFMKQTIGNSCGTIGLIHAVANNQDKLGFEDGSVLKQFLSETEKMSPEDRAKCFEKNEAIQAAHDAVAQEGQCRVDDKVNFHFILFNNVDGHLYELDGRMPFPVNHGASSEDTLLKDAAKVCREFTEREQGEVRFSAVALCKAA

SMILES	IC50	pIC50
Cc1cc(C)c(NC(=O)Cn2c(=O)n(CCC(=O)NCc3ccc4c(c3)OCO4)c(=O)c3sccc32)c(C)c1	> 25 µM (inactive)	–
Cc1nn(-c2ccccc2)c2c1C1(C(=O)Nc3ccccc31)N1C(=N2)Sc2ccccc21 (stereo unspecified)	> 25 µM (inactive)	–
O=c1c(O)c(-c2ccc(O)c(O)c2)oc2cc(O)cc(O)c12	–	5.63
Cc1cc(Nc2ncc(Cl)cc2Cl)n(-c2ccccc2)n1	> 25 µM (inactive)	–
COc1ccccc1N/C=C/c1onc(-c2c(F)cccc2Cl)c1C#N	> 25 µM (inactive)	–
Cc1ccc(C2SCC(=O)Nc3c2c(=O)[nH]n3C2CCCCC2)cc1 (stereo unspecified)	> 25 µM (inactive)	–
CO/C1=C\C(C)=C\[C@@H](C)[C@@H](O)[C@H](C)C/C(C)=C/C=C/[C@H](OC)[C@@H]([C@@H](C)[C@@H](O)[C@H](C)[C@@]2(O)C[C@@H](OC(=O)/C=C/C(=O)NC3=C(O)CCC3=O)[C@H](C)[C@@H](C(C)C)O2)OC1=O	> 25 µM (inactive)	–
COc1ccc(C)cc1NC(=O)COc1ncnc2ccccc12	> 25 µM (inactive)	–
CCOc1ccc2c(c1)c(=O)c(C(=O)c1ccccc1)cn2CC(=O)Nc1ccc(OC)cc1	> 25 µM (inactive)	–
O=C(OCC(=O)N1CCOCC1)c1ccccc1OCc1ccccc1Cl	> 25 µM (inactive)	–
Cc1cccc(NC(=O)N2C[C@@H]3c4nccn4-c4ccccc4[C@@H]3C2)c1	> 25 µM (inactive)	–
Nc1cccc(C(=O)CC2(O)C(=O)N(Cc3ccc(Cl)cc3)c3ccccc32)c1 (stereo unspecified)	> 25 µM (inactive)	–
COc1cc(NC(=O)c2ccc3c(c2)OCO3)ccc1-c1cc2ccccc2oc1=O	> 25 µM (inactive)	–
CCCn1c(=O)c(-c2ccc(C(=O)NCc3ccc(OC)cc3)cc2)nc2cccnc21	> 25 µM (inactive)	–
O=C(COc1ccc(Cl)cc1)Nc1noc(-c2cccs2)n1	> 25 µM (inactive)	–
O=C(Nc1nc2ccccc2s1)C1CC(=O)N(c2ccccc2)C1 (stereo unspecified)	> 25 µM (inactive)	–
O=C(Cc1c[nH]c2ccccc12)N1CCc2cc(-c3ccno3)ccc21	> 25 µM (inactive)	–
Cc1ccc(NC(=O)Nc2ccc(C)n(CC(=O)Nc3ccc(C)cc3C)c2=O)cc1	> 25 µM (inactive)	–
C(=C\c1nc(-c2cccc(-c3ccn[nH]3)c2)no1)/c1ccco1	> 25 µM (inactive)	–
O=C(C1CCCCC1)N1CCN(c2nc3c(F)cccc3s2)CC1	> 25 µM (inactive)	–
Cc1cc(C)c(NC(=O)Cn2c(SCc3cccc(F)c3)nc3cccnc32)c(C)c1	> 25 µM (inactive)	–
N#C/C(=C\c1ccc(OCc2cccc(C(=O)O)c2)cc1)c1ccc(F)cc1	> 25 µM (inactive)	–
CCC(=O)N1CCCC1c1nc2ccccc2n1Cc1ccc(F)cc1 (stereo unspecified)	> 25 µM (inactive)	–

SMILES	IC50	pIC50
CC(Oc1ccc(F)cc1)c1nnc(C2(c3ccc(F)cc3)CCOCC2)o1 (stereo unspecified)	> 25 µM (inactive)	–
CCCc1ccc(C(=O)[C@@H]2[C@@H](C(=O)c3cccs3)N3c4ccc(C)cc4C(C)=C[C@@H]3[C@@]23C(=O)Nc2ccccc23)cc1	> 25 µM (inactive)	–
Cc1nn(-c2ccc(F)cc2)c(C)c1S(=O)(=O)N1CCN(c2ccccn2)CC1	> 25 µM (inactive)	–
Cc1ccc(Cn2nc(C)c(C(=O)N3CCCc4cc(C)ccc43)c2C)cc1	> 25 µM (inactive)	–
COc1ccc(NC(=O)Cn2c(=O)n(-c3ccc(CC(=O)NCc4ccco4)cc3)c(=O)c3ccccc32)cc1Cl	> 25 µM (inactive)	–
Cc1nc(-c2ccccn2)sc1C(=O)/C=C/c1ccccc1	> 25 µM (inactive)	–
O=c1cc(Cc2ccccc2)nc2c(-c3ccccc3)c(COc3ccccc3)[nH]n12	> 25 µM (inactive)	–
COc1ccc2nc(N3CCN(C(=O)C4CCCCC4)CC3)sc2c1	> 25 µM (inactive)	–
COc1ccc(CCn2c(-c3ccccc3)nc3c(c(=O)c4ccccc4n3C)c2=O)cc1OC	> 25 µM (inactive)	–
O=C(C1CCCCC1)N1CCC(c2nc3c(nnn3Cc3cccc(F)c3)c(=O)[nH]2)CC1	> 25 µM (inactive)	–
CCC(C(=O)Nc1ncc2c(n1)CC(c1ccccc1)CC2=O)c1ccccc1 (stereo unspecified)	> 25 µM (inactive)	–
O=c1c2cnc(N3CCCCC3)nc2ccn1CCc1ccccc1	> 25 µM (inactive)	–
O=C(CS(=O)(=O)c1ccc(F)cc1)Nc1ccc(-c2nc3ccccc3s2)c(O)c1	> 25 µM (inactive)	–
C/C=C/C=C/[C@@H]1Cc2cc(O)cc(O)c2O1	–	4.96
COc1ccc(Nc2nnc(Cc3ccc(Cl)cc3)c(=O)[nH]2)cc1	> 25 µM (inactive)	–
O=C(Cn1cccc(-c2nc(-c3ccccc3)no2)c1=O)Nc1ccccc1F	> 25 µM (inactive)	–
O=C(NCC(c1cccnc1)N1CCOCC1)C1CCCCC1 (stereo unspecified)	> 25 µM (inactive)	–
CCC(C)N1CNc2c(c(=O)[nH]c(=O)n2Cc2ccco2)C1 (stereo unspecified)	> 25 µM (inactive)	–
O=C1CSC(c2ccc(F)cc2)c2c(n(C3CCCCCC3)[nH]c2=O)N1 (stereo unspecified)	> 25 µM (inactive)	–
O=C(Nc1c(C(=O)N2CCCCCC2)oc2ccccc12)C1CCCC1	> 25 µM (inactive)	–
Cc1ccc(C2CC(=O)C3=C(C2)Nc2ccccc2N(C(=O)c2ccccc2)C3c2ccccc2)cc1 (stereo unspecified)	> 25 µM (inactive)	–
O=C(Nc1ccc(NC(=O)c2ccccc2O)cc1)Nc1ccc(OCc2ccccc2)cc1	> 25 µM (inactive)	–
CCOc1ccc2c(c1)c(=O)c(C(=O)c1ccccc1)cn2CC(=O)Nc1ccccc1	> 25 µM (inactive)	–

SMILES	IC50	pIC50
CN(C)[C@@H]1C(=O)C(C(N)=O)=C(O)[C@@]2(O)C(=O)C3=C(O)c4c(O)cccc4[C@@](C)(O)[C@H]3C[C@@H]12	> 25 µM (inactive)	–
O=[N+]([O-])c1ccc(C(O)CN2CCN(Cc3ccccc3)CC2)cc1 (stereo unspecified)	> 25 µM (inactive)	–
COc1cccc(C(CC(=O)Nc2ccc3c(c2)OCCO3)n2cccc2)c1 (stereo unspecified)	> 25 µM (inactive)	–
O=C(Nc1ccc2c(c1)OCO2)c1cncc(NS(=O)(=O)c2ccccc2)c1	> 25 µM (inactive)	–
C=C1CCC2[C@](C)(CCC[C@]2(C)C(=O)OC)[C@H]1CCc1ccoc1/C=C/C(=O)O (stereo partly specified)	> 25 µM (inactive)	–
Cn1c2ccccc2c(=O)c2c(=O)n(-c3cccc(Cl)c3)c(-c3cccs3)nc21	> 25 µM (inactive)	–
Cc1nc(-c2ccc(C(=O)Nc3ccc(F)cc3)cc2)cs1	> 25 µM (inactive)	–
Cc1oc2cc3oc(=O)c(CCC(=O)N4CC[C@@]5(O)CCCC[C@H]5C4)c(C)c3cc2c1C	> 25 µM (inactive)	–
O=C1NC[C@@H](CCC(=O)N2CCCC2)N2C[C@@H](NCc3ccccc3)C[C@@H]12	> 25 µM (inactive)	–
COc1c2nc3ccccc3oc-2cc(=O)c1OC	> 25 µM (inactive)	–
Cc1ccc2c(c1)N(C)C(=O)c1cc(NC(=O)c3ccc(F)cc3)ccc1O2	> 25 µM (inactive)	–
Cc1ccccc1NC(=O)Cc1csc2nc(-c3ccc(F)cc3)cn12	> 25 µM (inactive)	–
Cc1ccc(NC(=O)c2cc(-c3ccccn3)nc3c(Cl)cccc23)nc1	> 25 µM (inactive)	–
CC1OC2CC(O)C1(O)C1=C2C(O)=C(C(N)=O)C(=N)C1=O (stereo unspecified)	–	4.93
O=C(CCc1nc2sc3c(c2c(=O)[nH]1)CCCCC3)Nc1ccc(F)cc1F	> 25 µM (inactive)	–
CC1OC2CC(=O)OC2C2=C1C(=O)c1c(O)cccc1C2=O (stereo unspecified)	> 25 µM (inactive)	–
CC(C)(C)n1ncc2c(=O)n(CC(=O)N3CCCc4ccccc43)cnc21	> 25 µM (inactive)	–
O=C(c1cncs1)N1CCc2[nH]nc(Nc3ccccc3)c2C1	> 25 µM (inactive)	–
O=C(Nc1nc2c(s1)CN(C(=O)c1cc(-c3ccco3)on1)CC2)C1CCCO1 (stereo unspecified)	> 25 µM (inactive)	–
Cn1c(=O)c(N2CCOCC2)nc2c(OCc3ccccc3)nc(N)nc21	> 25 µM (inactive)	–
CC(C)CC1NC(=O)C2CCCN2C1=O (stereo unspecified)	–	4.62
Cc1ccccc1NC(=O)Cn1c(=O)n(-c2ccc(CC(=O)NCCc3ccccc3)cc2)c(=O)c2sccc21	> 25 µM (inactive)	–
COc1cc(O)c2c(O)c3c(cc2c1)CC(C)OC3=O (stereo unspecified)	> 25 µM (inactive)	–

SMILES	IC50	pIC50
c1ccc(-c2ccc(NCc3ccc4c(c3)OCO4)nn2)cc1	> 25 µM (inactive)	–
CC(CCc1ccccc1)NCc1c(C(=O)O)n(Cc2ccccc2)c2ccccc12 (stereo unspecified)	> 25 µM (inactive)	–
Cc1ccc(-n2nc3c(c2NC(=O)c2ccc(F)c(F)c2)CS(=O)(=O)C3)cc1	> 25 µM (inactive)	–
CCOc1ccc(C2/C(=C(\O)c3ccccc3)C(=O)C(=O)N2c2nc3ccc(F)cc3s2)cc1 (stereo unspecified)	> 25 µM (inactive)	–
O=C(NCc1ccc(Br)cc1)c1cc(-c2cccnc2)n[nH]1	> 25 µM (inactive)	–
CCc1ccc(NC(=O)Cc2nnc3cc(-c4nc(C)no4)ccn23)cc1	> 25 µM (inactive)	–
Nc1c(-c2nc(-c3ccccc3Cl)no2)nnn1-c1ccc(Cl)cc1	> 25 µM (inactive)	–
COc1cccc2c1NC(=O)C21CCN(C(=O)Nc2cccc3ccccc23)CC1	> 25 µM (inactive)	–
Cn1nc(Cl)c(Cl)c1Oc1ccc(S(=O)(=O)Nc2ccc(Oc3ccc(C(F)(F)F)cn3)c(Cl)c2)cc1	> 25 µM (inactive)	–
CC(C)Cc1ccc(-c2cc(-c3ccc(C(F)(F)F)cc3)c(C#N)c(=O)[nH]2)cc1	> 25 µM (inactive)	–
O=c1[nH]cccc1NS(=O)(=O)c1ccc(F)cc1	> 25 µM (inactive)	–
O=C(CN1CC(=O)c2ccccc2S1(=O)=O)Nc1ccccc1	> 25 µM (inactive)	–
O=C(/C=C/c1ccc(Cl)cc1)N(Cc1ccccc1)C1CCS(=O)(=O)C1 (stereo unspecified)	> 25 µM (inactive)	–
O=C(C1CCCC1)N1CCC(c2nc3c(nnn3Cc3ccccc3Cl)c(=O)[nH]2)CC1	> 25 µM (inactive)	–
O=C(O)c1ccc(Cl)c(NC(=O)C2COc3ccccc3O2)c1 (stereo unspecified)	> 25 µM (inactive)	–
N#Cc1ccc(NC(=O)Nc2cccn(Cc3ccccc3Br)c2=O)cc1	> 25 µM (inactive)	–
CN(Cc1ccccc1)S(=O)(=O)c1ccc2[nH]c(=O)[nH]c2c1	> 25 µM (inactive)	–
CCc1ccc(NC(=O)Cn2c(=O)n(Cc3ccccc3)c(=O)c3nn(CC)cc32)cc1	> 25 µM (inactive)	–
O=C(Cn1nc2c3c4c(sc3ncn2c1=O)CCCCC4)Nc1ccc(Cl)cc1F	> 25 µM (inactive)	–
CC(C)(NC(=O)C1CCCCC1)c1nc2c(c(C(N)=O)n1)OCCO2	> 25 µM (inactive)	–
O=C1CC(c2ccccc2O)Oc2ccccc21 (stereo unspecified)	> 25 µM (inactive)	–
Cc1ccc(-n2cc(-c3noc(C(=O)Nc4ccc(F)cc4C)n3)nn2)cc1	> 25 µM (inactive)	–

Source: PubChem BioAssay AID1645867 (Buhrlage Lab, Dana-Farber Cancer Institute and Novartis …, 2021)
